Assay results published in PMC4057637, “Efficacy of novel antibacterial compounds targeting histidine kinase YycG protein” (Applied Microbiology and Biotechnology, 2014).

Columns and labels:
[1] = test system: S. epidermidis ATCC 35984 biofilms; test: Microtiter plate assay of S. epidermidis biofilms (crystal violet, MBEC); format: cell-based; conditions: 6-h-old (immature) biofilms
Description: The effects of the derivatives on immature (6-h-old) biofilms and mature (24-h-old) biofilms of S. epidermidis ATCC 35984 were detected by using a semiquantitative microtiter plate assay (Stepanovic et al. [2007]). An overnight culture of bacteria was inoculated 1:200 into TSB medium containing 0.25 % glucose and statically incubated in a polystyrene 96-well plate (200 μl per well) at 37 °C for 6 or 24 h. The medium containing any nonadherent bacteria was then removed, and serial dilutions of derivatives in 200 μl fresh TSB were added to the wells and incubated for another 16 h at 37 °C. The wells were then washed gently three times with phosphate buffered saline (PBS), air-dried, fixed with methanol, and stained with 2 % (w/v) crystal violet. The staining was visually assessed and scanned at 570 nm using a 96-well plate spectrophotometer (DTX880, Beckman Coulter, USA), and the minimal biofilm eradication concentration (MBEC) was measured (Ceri et al. [1999]).

Cytotoxicity, MTT assay = format: cell-based; conditions: African green monkey, Vero 76 cells
Description: Vero 76 cells (African green monkey cells) were used to determine the cytotoxicity of the derivatives with the Cell Proliferation Kit I (MTT) (Roche, Indianapolis, USA). The Vero cells were grown in Dulbecco’s modified Eagle’s medium (DMEM), supplemented with 5 % fetal calf serum, 100 U/ml penicillin, […] streptomycin, and 2 mM L-glutamine. After culturing in 5 % CO2 at 37 °C for 48 h, the cells were harvested and dispensed into 96-well cell culture plates containing 5 × 10^4 cells per well in 100 μl. The cells were co-incubated with serial twofold dilutions of derivatives from 200 to 6.25 μM (six different concentrations) for 24 h at 37 °C in 5 % CO2. Then, 10 μl of the MTT labeling reagent (final concentration 0.5 mg/ml) was added to each well and incubated for 4 h. The solubilization solution (100 μl per well) was added to dissolve the purple formazan salts generated in the viable cells, and the absorbance of each well was measured at 595 nm. Cells treated with the solvent (0.1 % DMSO) were used as a negative control and the cells cultured only with DMEM medium served as a blank control. The inhibitory rate was calculated as follows: Inhibitoryrate%=Ocontrol−ODtest/ODcontrol×100
CC50 was defined as the concentration of the derivatives that inhibited the Vero cell growth by 50 % and was calculated with the Origin v8.0 software (Origin Lab, Northampton, USA) (Qin et al. [2006]).

recombinant YycG′ = biological target: T1, recombinant YycG′ (Staphylococcus epidermidis, UniProt Q5HK19); test: Inhibition of YycG′ autophosphorylation (Kinase-Glo Luminescent Kinase Assay); format: biochemical, S. epidermidis; conditions: for IC50: autophosphorylation of recombinant YycG′, Kinase-Glo; for inhibition of enzymatic autophosphorylation of YycG′: 100 μM derivative, YycG′ 0.13 μM
T1 construct: made in house; host or cells: E. coli BL21 (DE3)
T1 sequence (Q5HK19 370-610): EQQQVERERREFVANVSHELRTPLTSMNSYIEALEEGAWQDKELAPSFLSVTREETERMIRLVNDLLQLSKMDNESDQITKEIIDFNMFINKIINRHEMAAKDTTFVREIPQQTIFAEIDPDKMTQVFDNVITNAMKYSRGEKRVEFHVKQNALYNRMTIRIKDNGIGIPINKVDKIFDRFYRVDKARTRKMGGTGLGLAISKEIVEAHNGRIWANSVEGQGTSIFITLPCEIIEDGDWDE
Description: Recombinant YycG (YycG′, amino acids 370–610) was prepared by expressing the HATPase_c and HisKA domains of YycG in E. coli BL21 (DE3). In brief, the sequence coding for YycG′ was amplified from the genome of S. epidermidis ATCC 35984 by PCR and cloned into the pET28a (+) vector, which inserts a GB1 tag (B1 domain of protein G, 56 residues) to make the recombinant fusion protein highly soluble and stable. The recombinant YycG′ protein was fused to the GB1 tag at its N-terminus end, expressed in E. coli BL21 (DE3) and purified by Ni^2+ affinity chromatography on a Ni-NTA column (Qiagen, Germany). The purified YycG′ was cleaved by TEV protease and further purified by Ni-NTA and Superdex 75 gel filtration columns (GE Healthcare, USA).
The Kinase-Glo™ Luminescent Kinase Assay (Promega, Madison, WI, USA) was used to measure the inhibitory activities of the derivatives against the autophosphorylation activity of the recombinant YycG′ following the manufacturer’s recommendation. The derivatives were serially diluted from 200 to 1.6 μM with reaction buffer (40 mM Tris pH 8.0, 20 mM MgCl2, and 0.1 mg/ml BSA). Recombinant YycG′ (0.02 μg/μl) and diluted derivative were added into a 96-well plate and incubated at 25 °C for 30 min, and then 4 μM ATP was added into each well and incubated for another 30 min. Finally, 50 μl Kinase-Glo™ Reagent containing luciferase (kinase) and D-luciferin was added. The luminescent signal generated by luciferase was in proportion to the amount of ATP remaining in the reaction. Luminescence was detected by a Perkin Elmer Victor X5 luminescence plate reader, and the intensity was recorded as relative light units (RLU). The wells containing ATP and Kinase-Glo™ without YycG′ and derivatives or containing YycG′ plus ATP and Kinase-Glo™ without the derivatives were used as the controls. The percentage inhibition of protein phosphorylation (Rp) by the derivatives was calculated as follows: Rp=RLUYycG^’+derivative+ATP+Kinase-Glo^TM-RLUYycG^’+ATP+Kinase-Glo^TM/RLUATP+Kinase-Glo^TM-RLUYycG^’+ATP+Kinase-Glo^TM×100
The concentration of a derivative required to inhibit half of the autophosphorylation of recombinant YycG′ (half maximal inhibitory concentration, IC50) was calculated with Origin 8.0 software (Origin Lab, Northampton, USA). Three independent assays were carried out, and each was performed in quadruplicate.

E. coli ATCC 25922 = test: MIC, broth dilution; format: cell-based; conditions: Escherichia coli, ATCC25922, 200 μM highest concentration used
Description: Bacterial strains S. epidermidis ATCC 12228 (nonbiofilm forming), S. epidermidis ATCC 35984 (biofilm forming), S. aureus ATCC 49230, and S. aureus ATCC 25923 were from the American Type Culture Collection (ATCC, Manassas, USA) and were cultured in tryptic soy broth medium (TSB; Oxoid Ltd., Basingstoke, England). Ten clinical methicillin-resistant staphylococcal isolates, five MRSA isolates and five MRSE isolates, were collected from Huadong Teaching Hospital in Shanghai. Escherichia coli ATCC 25922 was grown in Luria-Bertani (LB) broth. The six compounds used in this study (H2-38, H2-39, H2-57, H2-60, H2-74, and H2-81) were screened from 56 derivatives of compound 2 in which the functional groups were modified, but the thiazolidine core structure was unchanged. The compounds were synthesized by Nanjing University of Technology. To generate the derivative compounds, halogen atoms were introduced into 4-thiazolidinone compounds that contained carboxylic acid moieties of phenoxy-acetic acid, (5-vinyl-furan-2-yl)-benzoic acid or (5-vinyl-thiophene-2-yl)-benzoic acid. The derivatives were dissolved in dimethyl sulfoxide (DMSO; Amresco, USA) to 200 mM for use as stock solutions.
MICs of the derivatives for S. epidermidis and S. aureus were determined by the broth dilution method according to the National Committee for Clinical Laboratory (NCCLS) recommendations (Turnidge and Bordash [2007]). Twofold dilutions of the derivatives in tubes containing 4 ml of Mueller-Hinton broth (MH, Sigma, Germany) were made to concentrations from 200 to 0.39 μM. Overnight cultures of the bacteria were adjusted to the 0.5 McFarland standards and inoculated 1:200 into the MH broth and then incubated at 37 °C for 16–20 h. The lowest concentration inhibiting visible growth of the bacteria was recorded as minimal inhibitory concentration (MIC).

SMILES	MBEC [1]	CC50 at 24 h (Cytotoxicity, MTT assay)	IC50 (recombinant YycG′)	MIC (E. coli ATCC 25922)	inhibition of enzymatic autophosphorylation of YycG′ (recombinant YycG′)
CCc1ccccc1/N=C1\S/C(=C\c2ccc(OCC(=O)O)c(OC)c2)C(=O)N1c1ccccc1CC [Compound 2, {2-{4-{3-(2-ethylphenyl)-2-[(2-ethylphenyl)imino]-4-oxothiazolidin-5-ylidene}methyl}-2-methoxyphenoxy}acetic acid]	100.0 µM	50 µM	47.9 ± 5.3 µM	> 200 µM	
O=C(O)c1cccc(-c2ccc(C=C3SC(=Nc4ccc(Cl)cc4)N(c4ccc(Cl)cc4)C3=O)o2)c1 [H2-38, 3-{5-{{3-(4-chlorophenyl)-2-[(4-chlorophenyl)imino]-4-oxothiazolidin-5-ylidene}methyl}furan-2-yl}benzoic acid]	12.5 µM	> 200 µM	41.4 ± 3.4 µM	> 200 µM	61.8%
O=C(O)c1ccc(-c2ccc(C=C3SC(=Nc4ccc(Cl)cc4)N(c4ccc(Cl)cc4)C3=O)o2)cc1 [H2-39, 4-{5-{{3-(4-chlorophenyl)-2-[(4-chlorophenyl)imino]-4-oxothiazolidin-5-ylidene}methyl}furan-2-yl}benzoic acid]	12.5 µM	> 200 µM	59.8 ± 1.4 µM	> 200 µM	56.3%
O=C(O)c1ccc(-c2ccc(/C=C3\S/C(=N\c4ccccc4)N(c4ccc(Cl)cc4)C3=O)o2)cc1 [H2-57, 4-{5-{{3-(4-chlorophenyl)-2-[(4-phenyl)imino]-4-oxothiazolidin-5-ylidene}methyl}furan-2-yl}benzoic acid]	12.5 µM	> 200 µM	47.1 ± 1.5 µM	> 200 µM	59.7%
O=C(O)c1ccc(-c2ccc(C=C3SC(=Nc4ccc(F)cc4)N(c4ccc(F)cc4)C3=O)s2)cc1 [H2-60, 4-{5-{{3-(4-fluorophenyl)-2-[(4-fluorophenyl)imino]-4-oxothiazolidin-5-ylidene}methyl}thiophene-2-yl}benzoic acid]	12.5 µM	> 200 µM	63.7 ± 2.3 µM	> 200 µM	55.4%
O=C(O)COc1ccc(C=C2SC(=Nc3ccc(Cl)cc3)N(c3ccc(Cl)cc3)C2=O)cc1 [H2-74, 2-{4-{[3-(4-chlorophenyl)-2-[(4-chlorophenyl)imino]-4-oxothiazolidin-5-ylidene}methyl}phenoxy}acetic acid]	50.0 µM	> 200 µM	71.2 ± 4.9 µM	> 200 µM	53.9%
O=C(O)c1ccc(-c2ccc(/C=C3\S/C(=N\c4ccccc4)N(c4ccc(F)cc4)C3=O)s2)cc1 [H2-81, 4-{5-{{3-(4-fluorophenyl)-2-[(4-phenyl)imino]-4-oxothiazolidin-5-ylidene}methyl}thiophene-2-yl}benzoic acid]	6.3 µM	> 200 µM	24.2 ± 1.2 µM	> 200 µM	79.2%
